Data published in US20100036088A1, “Selective poly-N-substituted glycine antibiotics” (priority 2008, published 2010).
In brackets after ≈: the same amount, converted by molar mass. Like-named read-outs stand apart in the source and are kept apart here. Numbered stars: 1 amine (or outer) side, 2 acyl side, 3 side chain; on linkers, the order of the positions; unused ones are H or OH. Square brackets hold non-standard residues; d marks the D form. Peptide text beside a SMILES is read from it. X2 = CCC[C@H](C)N(CC(=O)[*:2])[*:1]; Nspe = C[C@H](NCC(=O)O)c1ccccc1; Nphe = O=C(O)CNCc1ccccc1; Nlys = NCCCCNCC(=O)O

Key:
[1] = system: B. subtilis (ATCC 6633); assay type: cell-based; conditions: ATCC 6633
Method in brief: (§1)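 MICs by broth microdilution per CLSI M7-A6 in cation-adjusted Mueller-Hinton broth, using 2:1 serial dilutions of peptoid and a bacterial inoculum of 1×10^6 CFU/mL. Values reproducible over three experiments, each with two parallel trials.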

[2] = system: E. coli (ATCC 35218); assay type: cell-based; conditions: ATCC 35218
Method in brief: as §1

[3] = system: Staphylococcus aureus NRS100 (COL); assay type: cell-based; conditions: NRS100 (COL)
Experimental: (§2) Antibacterial assays. MICs were determined according to CLSI M7-A6 protocols in a 96-well microtiter plate. In test wells, 50 μL bacterial inoculum (5×10^5 CFU/ml) in Mueller-Hinton broth (MHB) was added to 50 μL peptoid solution in MHB (prepared by 1:2 serial dilutions). Positive controls contained 50 μL inoculum and 50 μL MHB without peptoid. […] MIC values reported were reproducible between three independent experimental replicates, each consisting of two parallel trials. Broad-spectrum antimicrobial susceptibility testing was performed against BSL2 pathogens by Nova Biologicals, Inc. (Conroe, Tex.).
(§3) Broad-spectrum antibacterial assays. MICs of compounds were determined by microdilution procedure in Mueller-Hinton broth (MHB) in accordance with CLSI M7-A6 protocols in a manner similar to that described for the screen antibacterial assays. Inoculated microtiter plates were incubated at 35° C. for 24 hours prior to the result being recorded. Four ATCC strains that were used as standards are recommended by CLSI: Pseudomonas aeruginosa ATCC 27853, Escherichia coli ATCC 25922, Staphylococcus aureus ATCC 29213 and Enterococcus faecalis ATCC 29212. Other strains from the ATCC collection include Proteus vulgaris ATCC 49132, Proteus mirabilis ATCC 35659, Klebsiella pneumoniae ATCC 33495, Enterobacter aerogenes ATCC 35029 and Serratia marcescens ATCC 13880. S. aureus NRS100 (COL) is a well characterized methicillian-resistant S. aureus (MRSA) strain. The strains S. aureus VAN1 and S. aureus VAN2, vancomycin-resistant MRSA strains that were isolated in Michigan and Pennsylvania, were the first vancomycin-resistant strains clinically isolated. S. aureus NRS119 and S. aureus NRS120 are linezolid-resistant isolates from the Network on Antimicrobial Resistance in S. aureus (NARSA) collection. E. faecalis 99 and E. faecium 106 are vancomycin-resistant enterococcal strains.

[4] = system: Enterococcus faecium 106; assay type: cell-based; conditions: 106
Experimental: as §2, §3

[5] = system: Proteus vulgaris ATCC 49132; assay type: cell-based; conditions: ATCC 49132
Experimental: as §2, §3

[6] = system: Staphylococcus aureus ATCC 29213; assay type: cell-based; conditions: ATCC 29213
Experimental: as §2, §3

[7] = system: Staphylococcus aureus NRS120; assay type: cell-based; conditions: NRS120
Experimental: as §2, §3

[8] = system: Proteus mirabilis ATCC 35659; assay type: cell-based; conditions: ATCC 35659
Experimental: as §2, §3

[9] = system: Klebsiella pneumoniae ATCC 33495; assay type: cell-based; conditions: ATCC 33495
Experimental: as §2, §3

[10] = system: Enterococcus faecalis 99; assay type: cell-based; conditions: 99
Experimental: as §2, §3

[11] = system: Staphylococcus aureus VAN1; assay type: cell-based; conditions: VAN1
Experimental: as §2, §3

[12] = system: Staphylococcus aureus VAN2; assay type: cell-based; conditions: VAN2
Experimental: as §2, §3

[13] = system: Pseudomonas aeruginosa ATCC 27853; assay type: cell-based; conditions: ATCC 27853
Experimental: as §2, §3

[14] = system: Enterobacter aerogenes ATCC 35029; assay type: cell-based; conditions: ATCC 35029
Experimental: as §2, §3

[15] = system: Enterococcus faecalis ATCC 29212; assay type: cell-based; conditions: ATCC 29212
Experimental: as §2, §3

[16] = system: Serratia marcescens ATCC 13880; assay type: cell-based; conditions: ATCC 13880
Experimental: as §2, §3

[17] = system: Escherichia coli ATCC 25922; assay type: cell-based; conditions: ATCC 25922
Experimental: as §2, §3

[18] = system: Staphylococcus aureus NRS119; assay type: cell-based; conditions: NRS119
Experimental: as §2, §3

[19] = MTS assay, metabolic inhibition; assay type: cell-based, mouse
Method in brief: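 NIH/3T3 cells seeded at 5,000 per well, grown a day, then exposed to serially diluted peptoids in HBSS together with MTS reagent. Absorbance at 490 nm read after 3 hours at 37° C.; mean of six replicates.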

[20] = system: human erythrocytes; assay: Hemolysis assay; assay type: cell-based
Method in brief: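 Human erythrocytes from fresh heparinised blood, 20 vol % in PBS pH 7.4, mixed 1:1 with 2-fold serial peptoid dilutions; PBS as 0% and 0.2 vol % Triton X-100 as 100% hemolysis. Incubated 1 h at 37 °C, diluted, centrifuged 1200 g for 15 min; supernatant A350 read.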

[21] = RP-HPLC elution solvent composition as measure of molecular hydrophobicity; assay type: physicochemical
Description: An initial set of 15 ampetoid analogs was synthesized to determine whether peptoids are affected by structural and sequence modifications in a manner consistent with AMP activities. The designs for ampetoids in this library were derived from two antibacterial and selective amphipathic dodecamers, 1 and 2. Peptoid 1 [H-(Nlys-Nspe-Nspe)4—NH2] is composed of 2/3 Nspe, the peptoid analog of phenylalanine, and 1/3 Nlys, the peptoid analog of lysine (see FIG. 1 for the structures of representative peptoid monomers and corresponding N-substituents). Peptoid 2 [H-(Nlys-Nssb-Nspe)4—NH2] contains 1/3 isoleucine-like Nssb monomers in place of Nspe. The variant sequences were designed to effect changes in chirality, length, hydrophobicity, charge, and amphipathicity. All of these compounds were tested for antibacterial activity against representative BSL1 Gram-negative (E. coli JM109) and Gram-positive (B. subtilis BR151) bacterial strains. As an initial measure of selectivity, the lytic activity of the peptoids was determined against human erythrocytes. Table 1 summarizes the sequences synthesized, the solvent composition at RP-HPLC elution as a relative measure of molecular hydrophobicity, and antibacterial and hemolytic activities.
Following synthesis, peptoid oligomers can be cleaved from the resin, simultaneously removing the tert-butoxycarbonyl (Boc) protecting group from Nlys residues, by treatment with 10 ml 2,2,2-trifluoroacetic acid (TFA)/triisopropylsilane/H2O (95:2.5:2.5 by volume) for 30 min. The cleavage mixture is then diluted with 25 ml 50% aqueous acetonitrile, frozen, and lyophilized. Dilution and lyophilization is repeated twice more in order to remove excess TFA. Subsequent to cleavage, peptoids are each purified to >97% homogeneity by preparative scale reversed-phase HPLC using a Waters Prep LC 4000 system, with Waters 2487 dual-wavelength UV detection, and gradient elution (solvent A, 0.1 vol % trifluoroacetic acid (TFA) in water; solvent B, 0.1 vol % TFA in acetonitrile) through a Vydac (Hysperia, Calif.) 214TP101550 C4 peptide/protein column (10-15 μm, 300 Å, 5×25 cm). Following prep HPLC, peptoid purities and crude yields were determined from analytical scale HPLC, performed with a Waters 2695 Separations Module with a Waters 2487 dual-wavelength UV detector and gradient elution (solvent A, 0.1 vol % TFA in water; solvent B, 0.1 vol % TFA in acetonitrile) through a Vydac C4 214TP53 peptide/protein column (5 μm, 300 Å, 3.2×250 mm). The precise gradient employed for HPLC depended on the identity and hydrophobicity of the oligomer in question. All analytical HPLC was performed at 0.5 ml/min flow and 58° C. Preparative HPLC was performed at 50 ml/min flow and room temperature.

B. subtilis MIC [1]	E. coli MIC [2]	MIC Staphylococcus aureus NRS100 (COL) [3]	MIC Enterococcus faecium 106 [4]	MIC Proteus vulgaris ATCC 49132 [5]	MIC Staphylococcus aureus ATCC 29213 [6]	MIC Staphylococcus aureus NRS120 [7]	MIC P. mirabilis ATCC 35659 [8]	MIC Proteus mirabilis ATCC 35659 [8]	MIC Klebsiella pneumoniae ATCC 33495 [9]	MIC Enterococcus faecalis 99 [10]	MIC Staphylococcus aureus VAN1 [11]	MIC Staphylococcus aureus VAN2 [12]	MIC Pseudomonas aeruginosa ATCC 27853 [13]	MIC Enterobacter aerogenes ATCC 35029 [14]	MIC Enterococcus faecalis ATCC 29212 [15]	MIC S. marcescens ATCC 13880 [16]	IC50 [19]	Compound	HD10 [20]	HD50 [20]	also measured
1.6 µM	6.3 µM	4.5 µM (≈ 7.93 µg/mL)	2.3 µM (≈ 4.06 µg/mL)	36.3 µM (≈ 64 µg/mL)	4.5 µM (≈ 7.93 µg/mL)	9.1 µM (≈ 16 µg/mL)	>128 µg/mL	>72.6 µM	9.1 µM (≈ 16 µg/mL)	36.3 µM (≈ 64 µg/mL)	4.5 µM (≈ 7.93 µg/mL)	4.5 µM (≈ 7.93 µg/mL)	36.3 µM (≈ 64 µg/mL)	36.3 µM (≈ 64 µg/mL)	4.5 µM (≈ 7.93 µg/mL)	>128 µg/mL	6.8 µM	C[C@@H](c1ccccc1)N(CC(N)=O)C(=O)CN(Cc1ccccc1)C(=O)CN(CCCCN)C(=O)CN(C(=O)CN(Cc1ccccc1)C(=O)CN(CCCCN)C(=O)CN(C(=O)CN(Cc1ccccc1)C(=O)CN(CCCCN)C(=O)CN(C(=O)CN(Cc1ccccc1)C(=O)CNCCCCN)[C@@H](C)c1ccccc1)[C@@H](C)c1ccccc1)[C@@H](C)c1ccccc1 [1-Npm2,5,8,11, H-(Nlys-Npm-Nspe)4-NH2] (H-[Nlys][Nphe][Nspe][Nlys][Nphe][Nspe][Nlys][Nphe][Nspe][Nlys][Nphe][Nspe]-NH2)	87 µM	> 200 µM	MIC Serratia marcescens ATCC 13880 [16]: >72.6 µM; MIC Escherichia coli ATCC 25922 [17]: 4.5 µM (≈ 7.93 µg/mL); MIC Staphylococcus aureus NRS119 [18]: 9.1 µM (≈ 16 µg/mL)
–	50 µM	–	–	–	–	–	–	–	–	–	–	–	–	–	–	–	64 µM	CC(C)[C@H](C)N(CC(N)=O)C(=O)CN(C(=O)CN(CCCCN)C(=O)CN(C(=O)CN(C(=O)CN(CCCCN)C(=O)CN(C(=O)CN(C(=O)CN(CCCCN)C(=O)CN(C(=O)CN(C(=O)CNCCCCN)[C@@H](C)C(C)C)[C@@H](C)C(C)C)[C@@H](C)C(C)C)[C@@H](C)C(C)C)[C@@H](C)C(C)C)[C@@H](C)C(C)C)[C@@H](C)C(C)C [1-Nsdpall, H-(Nlys-Nsdp-Nsdp)4-NH2]	>200/>200 μM	>200/>200 μM	B. subtilis MIC ([1]; Table 6): 0.78 µM; E. coli MIC ([2]; Table 6): 25 µM; HPLC elution (% ACN) ([21]; Table 5, average of three injections, linear 5%-95% acetonitrile/water (0.1% TFA) over 45 minutes, C18 column, measure of hydrophobicity): 63.2 % ACN
1.6 µM	12.5 µM	4.6 µM (≈ 8.07 µg/mL)	2.3 µM (≈ 4.04 µg/mL)	36.5 µM (≈ 64.1 µg/mL)	9.1 µM (≈ 16 µg/mL)	9.1 µM (≈ 16 µg/mL)	>128 µg/mL	>72.9 µM	9.1 µM (≈ 16 µg/mL)	36.5 µM (≈ 64.1 µg/mL)	4.6 µM (≈ 8.07 µg/mL)	4.6 µM (≈ 8.07 µg/mL)	18.2 µM (≈ 31.9 µg/mL)	36.5 µM (≈ 64.1 µg/mL)	4.6 µM (≈ 8.07 µg/mL)	>128 µg/mL	24 µM	C[C@@H](c1ccccc1)N(CC(N)=O)C(=O)CN(C(=O)CN(CCCCN)C(=O)[C@@H]1CCCN1C(=O)CN(C(=O)CN(CCCCN)C(=O)CN(C(=O)CN(C(=O)CN(CCCCN)C(=O)CN(C(=O)CN(C(=O)CNCCCCN)[C@@H](C)c1ccccc1)[C@@H](C)c1ccccc1)[C@@H](C)c1ccccc1)[C@@H](C)c1ccccc1)[C@@H](C)c1ccccc1)[C@@H](C)c1ccccc1 [1-Pro9, H-(Nlys-Nspe2)2-Nlys-Nspe-L-Pro-(Nlys-Nspe2)-NH2] (H-[Nlys][Nspe][Nspe][Nlys][Nspe][Nspe][Nlys][Nspe]P[Nlys][Nspe][Nspe]-NH2)	165 µM	> 200 µM	MIC Serratia marcescens ATCC 13880 [16]: >72.9 µM; MIC Escherichia coli ATCC 25922 [17]: 4.6 µM (≈ 8.07 µg/mL); MIC Staphylococcus aureus NRS119 [18]: 9.1 µM (≈ 16 µg/mL)
–	–	–	–	–	–	–	–	–	–	–	–	–	–	–	–	–	–	CCC[C@H](C)N(CC(=O)N(CC(N)=O)[C@@H](C)c1ccccc1)C(=O)CN(CCCCN)C(=O)CN(C(=O)CN(C(=O)CN(CCCCN)C(=O)CN(C(=O)CN(C(=O)CN(CCCCN)C(=O)CN(C(=O)CN(C(=O)CNCCCCN)[C@@H](C)CCC)[C@@H](C)c1ccccc1)[C@@H](C)CCC)[C@@H](C)c1ccccc1)[C@@H](C)CCC)[C@@H](C)c1ccccc1 [2-Nsap2,5,8,11] (H-[Nlys][X2][Nspe][Nlys][X2][Nspe][Nlys][X2][Nspe][Nlys][X2][Nspe]-NH2)	–	–	HPLC elution solvent ([21]; Table 1, percent acetonitrile in water, 0.1% (v/v) TFA at HPLC elution): 48%; HD10 (10% hemolytic dose) ([20]; red cells of human, 1 h): >120/>120 μM; HD50 (50% hemolytic dose) ([20]; red cells of human, 1 h): >120/>120 μM
